Data from the NIST ThermoML archive (doi:10.1021/je800110r).

Conditions: 283.15 K, Liquid, Vibrating tube method

CCCCCCCCCC [decane]
Conditions | mass density [kg/m3]
18830 kPa | 750.4
18862 kPa | 750.3
18886 kPa | 750.4
18919 kPa | 750.4
18953 kPa | 750.3
18975 kPa | 750.3
19001 kPa | 750.4
19028 kPa | 750.5
19063 kPa | 750.5
19088 kPa | 750.4
19116 kPa | 750.6
19142 kPa | 750.5
19169 kPa | 750.6
19195 kPa | 750.6
19222 kPa | 750.6
19245 kPa | 750.6
19296 kPa | 750.6
19437 kPa | 750.6
19472 kPa | 750.7
19500 kPa | 750.8
19524 kPa | 750.7
19561 kPa | 750.8
19589 kPa | 750.8
19627 kPa | 750.9
19660 kPa | 750.9
19683 kPa | 750.9
19715 kPa | 750.9
19742 kPa | 750.9
19762 kPa | 750.9
19786 kPa | 750.9
19807 kPa | 751
19842 kPa | 751
19870 kPa | 751
19891 kPa | 751
19925 kPa | 751
19953 kPa | 751
19975 kPa | 751
19996 kPa | 751
20017 kPa | 751
20039 kPa | 751.1
20064 kPa | 751.2
20082 kPa | 751.2
20101 kPa | 751.1
20121 kPa | 751
20149 kPa | 751.1
20174 kPa | 751.2
20196 kPa | 751.3
20219 kPa | 751.1
20248 kPa | 751.3
20268 kPa | 751.2
20291 kPa | 751.3
20310 kPa | 751.2
20345 kPa | 751.3
20368 kPa | 751.2
20387 kPa | 751.4
20410 kPa | 751.3
20429 kPa | 751.3
20462 kPa | 751.3
20488 kPa | 751.4
20508 kPa | 751.3
20558 kPa | 751.3
20627 kPa | 751.4
20648 kPa | 751.6
20677 kPa | 751.4
20697 kPa | 751.6
20731 kPa | 751.6
20762 kPa | 751.6
20782 kPa | 751.6
20813 kPa | 751.6
20841 kPa | 751.6
20865 kPa | 751.6
20894 kPa | 751.6
20922 kPa | 751.6
20942 kPa | 751.6
20966 kPa | 751.5
20994 kPa | 751.7
21015 kPa | 751.7
21043 kPa | 751.8
21074 kPa | 751.8
21095 kPa | 751.8
21127 kPa | 751.8
21151 kPa | 751.8
21173 kPa | 751.8
21194 kPa | 751.8
21211 kPa | 751.9
21240 kPa | 752
21271 kPa | 751.9
21296 kPa | 751.8
21321 kPa | 751.9
21353 kPa | 751.9
21370 kPa | 751.9
21403 kPa | 751.9
21752 kPa | 752.1
21805 kPa | 752.2
21889 kPa | 752.2
21915 kPa | 752.2
21938 kPa | 752.3
21972 kPa | 752.3
22007 kPa | 752.3
22031 kPa | 752.3
22058 kPa | 752.3
22089 kPa | 752.3
22113 kPa | 752.4
22147 kPa | 752.4
22178 kPa | 752.3
22201 kPa | 752.4
22236 kPa | 752.4
22272 kPa | 752.5
22295 kPa | 752.5
22335 kPa | 752.4
22359 kPa | 752.5
22386 kPa | 752.6
22411 kPa | 752.6
22446 kPa | 752.5
22479 kPa | 752.6
22503 kPa | 752.5
22527 kPa | 752.6
22564 kPa | 752.6
22597 kPa | 752.6
22622 kPa | 752.7
22663 kPa | 752.6
22697 kPa | 752.7
22722 kPa | 752.7
22759 kPa | 752.7
22793 kPa | 752.8
22818 kPa | 752.9
22847 kPa | 752.9
22881 kPa | 752.9
22919 kPa | 752.9
23017 kPa | 752.9
23052 kPa | 752.9
23107 kPa | 753
23142 kPa | 753
23169 kPa | 752.9
23192 kPa | 753.1
23212 kPa | 753.1
23237 kPa | 753.1
23257 kPa | 753.2
23291 kPa | 753.1
23311 kPa | 753.2
23338 kPa | 753.1
23363 kPa | 753.2
23386 kPa | 753.2
23410 kPa | 753.2
23441 kPa | 753.2
23462 kPa | 753.2
23489 kPa | 753.3
23513 kPa | 753.1
23530 kPa | 753.2
23558 kPa | 753.3
23590 kPa | 753.3
23611 kPa | 753.3
23638 kPa | 753.3
23667 kPa | 753.4
23689 kPa | 753.3
23714 kPa | 753.3
23743 kPa | 753.4
23766 kPa | 753.4
23786 kPa | 753.5
23812 kPa | 753.4
23835 kPa | 753.5
23855 kPa | 753.4
23875 kPa | 753.4
23904 kPa | 753.5
23928 kPa | 753.5
23957 kPa | 753.5
23977 kPa | 753.6
24007 kPa | 753.5
24024 kPa | 753.6
24061 kPa | 753.7
24135 kPa | 753.6
24155 kPa | 753.6
24179 kPa | 753.7
24242 kPa | 753.6
24265 kPa | 753.7
24286 kPa | 753.7
24309 kPa | 753.7
24330 kPa | 753.8
24362 kPa | 753.7
24389 kPa | 753.7
24410 kPa | 753.7
24434 kPa | 753.8
24452 kPa | 753.9
24490 kPa | 753.9
24511 kPa | 753.7
24533 kPa | 753.8
24564 kPa | 753.9
24596 kPa | 753.8
24618 kPa | 753.9
24642 kPa | 753.8
24660 kPa | 753.9
24682 kPa | 753.9
24710 kPa | 754
24739 kPa | 753.9
24764 kPa | 753.9
24796 kPa | 754
24819 kPa | 754
24845 kPa | 754.1
24871 kPa | 754.1
24904 kPa | 754.2
24924 kPa | 754.1
24954 kPa | 754.2
24981 kPa | 754.1
25004 kPa | 754.2
25025 kPa | 754.1
25048 kPa | 754
25068 kPa | 754.2
25099 kPa | 754.3
25121 kPa | 754.2
25141 kPa | 754.3
25168 kPa | 754.2
25199 kPa | 754.3
25220 kPa | 754.3
25248 kPa | 754.2
25268 kPa | 754.3
25286 kPa | 754.3
25313 kPa | 754.2
25335 kPa | 754.3
25366 kPa | 754.4
25398 kPa | 754.5
25416 kPa | 754.3
25477 kPa | 754.4
25498 kPa | 754.4
25523 kPa | 754.5
25544 kPa | 754.5
25566 kPa | 754.5
25591 kPa | 754.5
25620 kPa | 754.5
25645 kPa | 754.5
25669 kPa | 754.5
25695 kPa | 754.6
25712 kPa | 754.5
25739 kPa | 754.7
25768 kPa | 754.7
25788 kPa | 754.7
25818 kPa | 754.6
25845 kPa | 754.4
25865 kPa | 754.6
25888 kPa | 754.7
25908 kPa | 754.6
25939 kPa | 754.7
25967 kPa | 754.7
25992 kPa | 754.7
26022 kPa | 754.7
26046 kPa | 754.8
26065 kPa | 754.7
26099 kPa | 754.8
26119 kPa | 754.9
26136 kPa | 754.7
26166 kPa | 754.8
26197 kPa | 754.7
26220 kPa | 754.9
26245 kPa | 754.8
26273 kPa | 754.8
26300 kPa | 754.8
26324 kPa | 754.9
26341 kPa | 755
26368 kPa | 754.9
26389 kPa | 755
26421 kPa | 755
26445 kPa | 755
26466 kPa | 755
26490 kPa | 755
26510 kPa | 755.1
26538 kPa | 755.1
26567 kPa | 755.1
26591 kPa | 755
26624 kPa | 755.2
26652 kPa | 755.2
26677 kPa | 755.2
26694 kPa | 755.2
26726 kPa | 755.2
26754 kPa | 755.3
